Assay results reported in the supplement of paper PMC10307832.

How the values were obtained:
Assay in all cases: relative viability (nuclei count vs DMSO), 5 days (fraction); higher = more cells survive
Quizartinib + Crizotinib = compound: CC(C)(C)c1cc(NC(=O)Nc2ccc(-c3cn4c(n3)sc3cc(OCCN5CCOCC5)ccc34)cc2)no1 [Quizartinib] + C[C@@H](Oc1cc(-c2cnn(C3CCNCC3)c2)cnc1N)c1c(Cl)ccc(F)c1Cl [Crizotinib] (partner 1 µM)
In short: (§1)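 Each reported value is a median over duplicate plates. It expresses relative viability: treated-well nuclei count divided by vehicle-well nuclei count. Lung cancer cell lines in 1536-well plates were dosed by pin tool a day after seeding, alone with one drug or with a fixed anchor-drug dose plus five library-drug doses (not always all listed) in √10 steps, and nuclei were counted after 5 days.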

Quizartinib + Decitabine = compound: CC(C)(C)c1cc(NC(=O)Nc2ccc(-c3cn4c(n3)sc3cc(OCCN5CCOCC5)ccc34)cc2)no1 [Quizartinib] + Nc1ncn([C@H]2C[C@H](O)[C@@H](CO)O2)c(=O)n1 [Decitabine] (partner 2 µM)
In short: as §1

YM155 + Tozasertib = compound: COCC[n+]1c2c(n(Cc3cnccn3)c1C)C(=O)c1ccccc1C2=O [YM155] + Cc1cc(Nc2cc(N3CCN(C)CC3)nc(Sc3ccc(NC(=O)C4CC4)cc3)n2)n[nH]1 [Tozasertib] (partner 0.1 µM)
In short: as §1

YM155 + Vorinostat = compound: COCC[n+]1c2c(n(Cc3cnccn3)c1C)C(=O)c1ccccc1C2=O [YM155] + O=C(CCCCCCC(=O)Nc1ccccc1)NO [Vorinostat] (partner 1 µM)
In short: as §1

Cell Line | relative viability (Quizartinib + Crizotinib; first compound 0.001 µM) | relative viability (Quizartinib + Crizotinib; first compound 0.003162 µM) | relative viability (Quizartinib + Crizotinib; first compound 0.01 µM) | relative viability (Quizartinib + Crizotinib; first compound 0.03162 µM) | relative viability (Quizartinib + Crizotinib; first compound 0.1 µM) | relative viability (Quizartinib + Decitabine; first compound 0.001 µM) | relative viability (Quizartinib + Decitabine; first compound 0.003162 µM) | relative viability (Quizartinib + Decitabine; first compound 0.03162 µM) | relative viability (Quizartinib + Decitabine; first compound 0.1 µM) | relative viability (YM155 + Tozasertib; first compound 0.002 µM) | relative viability (YM155 + Tozasertib; first compound 0.006325 µM) | relative viability (YM155 + Tozasertib; first compound 0.02 µM) | relative viability (YM155 + Tozasertib; first compound 0.06325 µM) | relative viability (YM155 + Vorinostat; first compound 0.002 µM) | relative viability (YM155 + Vorinostat; first compound 0.006325 µM) | relative viability (YM155 + Vorinostat; first compound 0.02 µM) | relative viability (YM155 + Vorinostat; first compound 0.06325 µM) | relative viability (Quizartinib + Decitabine; first compound 0.01 µM)
HCC-827 | 0.934 | 0.877 | 0.961 | 0.934 | 0.879 | 0.291 | 0.358 | 0.313 | 0.334 | 0.421 | 0.416 | 0.448 | 0.475 | 0.875 | 0.961 | 0.835 | 0.835 | 
HOP-62 | 0.881 | 0.98 | 1.11 | 1.11 | 0.86 | 0.215 | 0.219 | 0.227 | 0.213 | 0.384 | 0.383 | 0.391 | 0.354 | 0.516 | 0.595 | 0.727 | 0.577 | 0.217
IA-LM | 0.858 | 0.912 | 0.726 |  | 0.623 |  |  |  |  |  |  |  |  | 0.863 | 0.932 | 0.942 | 0.97 | 
LC-2-ad | 0.437 | 0.514 | 0.583 | 0.469 | 0.362 | 0.718 | 0.81 | 0.841 | 0.68 | 0.469 | 0.425 | 0.438 | 0.299 | 0.682 | 0.637 | 0.705 | 0.65 | 0.776
LCLC-97TM1 |  | 0.27 | 0.463 | 0.297 | 0.417 | 0.225 | 0.253 | 0.218 | 0.21 | 0.197 | 0.202 | 0.227 | 0.22 |  | 0.817 | 0.753 | 0.481 | 0.237
LCLC-103H | 0.784 | 1.16 | 0.992 | 1.05 | 1.02 | 0.632 | 0.735 | 0.796 | 0.759 | 0.569 | 0.454 | 0.464 | 0.487 | 0.732 | 0.824 | 0.864 | 0.802 | 0.682
LK-2 | 0.186 | 0.224 | 0.229 | 0.238 | 0.24 | 0.263 | 0.215 | 0.348 | 0.438 | 0.154 | 0.188 | 0.208 | 0.203 | 0.304 | 0.139 | 0.388 | 0.305 | 0.363
LOU-NH91 | 0.747 | 0.715 | 0.771 | 0.729 | 0.79 | 0.746 | 0.815 | 0.79 | 0.89 | 0.667 | 0.665 | 0.712 | 0.603 | 0.883 | 0.921 | 0.949 | 0.932 | 0.862
LU99A | 0.49 | 0.507 | 0.656 | 0.534 | 0.507 | 0.923 | 0.918 | 0.895 | 0.625 | 0.26 | 0.255 | 0.318 | 0.265 | 0.508 | 0.419 | 0.514 | 0.441 | 1.02
LXF-289 | 0.743 | 0.787 | 0.821 | 0.8 | 0.726 | 0.347 | 0.321 | 0.432 | 0.42 | 0.186 | 0.214 | 0.205 | 0.183 | 0.739 | 0.789 | 0.73 | 0.756 | 0.427
